The subject of series [1] is male Wister rats. Briefly: Effect on yawning behavior induced by apomorphine. In kind it is in vivo. The method, then: Effect on yawning behavior
Male Wister rats (weighing 200 to 300 g) were used, with 10 rats in each group. The rat was placed into a plastics cage (17×24×12 cm) with a floor mat and was then habituated for 30 minutes. Peptide A, peptide B, CCK-8 or the above-mentioned diluent serving as a control was subcutaneously given to the animal. Thirty minutes thereafter, 0.03 mg/kg of apomorphine was subcutaneously given to the animal. The number of yawns induced by apomorphine was counted during a period of 30 minutes following administration of apomorphine. The test was conducted in a soundproof compartment for each animal. Wilcoxon rank-sum test was resorted to for statistical treatment.

The subject of series [2] is Male ddy mice. Briefly: Effect on climbing behavior induced by apomorphine (Pharmacological Test 2). The note with it: for Average: Mean ± S.E. (total of 7 scores), climbing behavior: 30 min before apomorphine 0.75 mg/kg s.c., control 9.8 ± 0.7. In kind it is in vivo. More on the design: key to Average: Mean ± S.E. (total of 7 scores), climbing behavior: sum of 7 scores; 0 = all four legs on floor, 2 = ≥3 legs on rods. The method, then:
(§1) Effect on climbing behavior induced by apomorphine
Male ddy mice (weighing 20 to 30 g) were used, with 10 mice in each group. Each mouse was placed into a cylindrical cage, 12 cm in diameter and 14 cm in height, made up of vertical rods of 2 mm in diameter spaced apart at a distance of 10 mm in a circular arrangement. The mouse was allowed to stand therein for 2 hours. Peptide A, peptide B, CCK-8 or, as a control, the above-mentioned diluent was subcutaneously given to the animal, and 30 minutes later, 0.75 mg/kg of apomorphine was subcutaneously given. […] The test was carried out in soundproof compartments.
(§2) 0: All the four legs are on the floor.
(§3) 2: At least three legs are on rods.
Student's t-test was resorted to for statistical treatment.

In series [3] the test system is male Wister rats. Briefly: Effect on the fixed ratio (FR20) responding in rats. In kind it is in vivo. The following applies: s.c., 15 min before 20 min session, dose giving count 50 with control as 100. The method, then: Effect on the fixed ratio responding in rats
The test was conducted according to the method described in Ahlenius S. and Engel J., Eur. J. Pharm., Vol. 15, 187-192 (1971).
Male Wister rats (weighing 240 to 320 g) were placed into Skinner box (product of Bil-Medika Co., Ltd., Japan, adapted to give a feed when a lever within the box is pressed) and made to learn how to take the food. In this test, one feed was given to the rats when the lever was pressed 20 times, i.e., fixed ratio (FR) 20. The rats showing stable FR20 response were divided into groups each including four rats.
Physiological saline (containing 1 mM of sodium hydrogencarbonate) containing a specified amount of a test compound was subcutaneously given to the rats of one group in a volume of 0.1 ml/100 g. (Physiological saline containing the above-mentioned amount of sodium hydrogencarbonate only was given to the control group). Fifteen minutes after the administration, the test animals were placed in the Skinner box, and the number of times the animals took the feed for 20 minutes was counted. The dose at which the count gained by the group of animals was 50, namely, ED50 value, was determined, with the count gained by the control group calculated as 100. The same procedure as above was repeated with use of the other test compounds.

Series [4] deals with male Wister rats. Briefly: Effect on metabolism of amine in the brain. In kind it is in vivo. As for the experimental part:
Effect on metabolism of amine in the brain
Unfasted male Wister rats (weighing 180 to 220 g) were used. Peptide A or peptide B was subcutaneously given to the animal at a dose of 1 mg/kg, the head was irradiated with microwave 1 hour thereafter, and amine metabolite was extracted from the brain. First, removed tissues were homogenized with 1M formic acid and centrifuged at 20,000×g for 20 minutes, and the supernatant (1 ml) was shaken with 5 ml of ethyl acetate. The 3,4-dihydroxyphenylacetic acid (DOPAC), homovanillic acid (HVA) and 5-hydroxyindoleacetic acid (5-HIAA) in the ethyl acetate layer were analyzed by high-performance liquid chromatography under the following conditions. Chemcosorb, 5-ODS, 20 cm×4.6 mm I.D. was used for a separating column, and a mobile phase (0.1M KH2 PO4 (pH 5.0)-5 mM EDTA-2Na-5% acetonitrile) was passed through the colunn at a flow rate of 1 ml/min. The electrochemical detector was set to an oxidation potential of +0.8 V.

In series [5] the test system is Male ddy mice. Briefly: Effect on climbing behavior induced by apomorphine (Pharmacological Test 7). The note with it: control 9.8 ± 0.7. Set-up: key: sum of 7 scores; each 0 = four legs on floor, 2 = ≥3 legs on rods. In kind it is in vivo. As for the experimental part: as §1
Male ddy mice (weighing 20 to 30 g) were used, with 10 mice in each group. Each mouse was placed into a cylindrical cage, 12 cm in diameter and 14 cm in height, made up of vertical rods of 2 mm in diameter spaced apart at a distance of 10 mm in a circular arrangement. The mouse was allowed to stand therein for 2 hours. Physiological saline containing a specified amount of a test compound (and 1 mM of sodium hydrogencarbonate) was subcutaneously given to one group of mice in a volume of 1 ml/10 g. (The same dose of saline only was given to a control group). […] The test was carried out in soundproof compartments.
as §2, §3
The other compounds were tested in the same manner as above. The test was carried out in soundproof compartments. Student's t-test was resorted to for statistical treatment.

The subject of series [6] is Male ICR mice. Description: Inhibitory effect on hyperlocomotion induced by administration of methylphenidate. It is filed as in vivo. The note with it: for ED50, inhibition of methylphenidate-induced hyperlocomotion: s.c. with methylphenidate 10 mg/kg s.c., measured 1 hour after, 50 with control as 100. The method, then: Inhibitory effect on hyperlocomotion induced by administration of methylphenidate
Male ICR mice (weighing 24 to 30 g) were divided into groups, each including 10 mice. To one group of mice were subcutaneously given 10 mg/kg of methylphenidate and 0.1 ml/10 g of a saline solution of a specified amount of a test compound and 1 mM of sodium hydrogencarbonate. One hour after the administration, the test animals were checked for hyperlocomotion, which was measured with use of a device for measuring locomotion of small animals (wherein the motion of an animal shifts the center of graavity of the device to actuate a microswitch for the measurement of the amount of motion, see Folia Pharmacologica Japonica, 74, 629-639 (1978). For a control group, the same procedure as above was repeated except that the saline solution given was free from any test compound. The concentration of the test compound at which the result achieved by the group of animals was 50, namely, ED50 value, was determined, with the measurement obtained by the control group calculated as 100. The other compounds were tested in the same manner as above.

The nature of series [7]: Induction of yawning behavior. The note with it: in vivo.
The subject of series [8] is test animals. Description: Induction of catalepsy in test animals. In kind it is in vivo.

The structures appear in SMILES notation. “Also recorded” adds a separate entry of the source. Where a SMILES comes first, the peptide text is derived from it.

As for `CSCC[C@H](NC(=O)[C@H](Cc1ccc(OS(=O)(=O)O)cc1)NC(=O)[C@@H](N)CC(=O)O)C(=O)NCC(=O)N[C@@H](Cc1c[nH]c2ccccc12)C(=O)N[C@@H](CCSC)C(=O)N[C@@H](CC(=O)O)C(=O)N[C@@H](Cc1ccccc1)C(N)=O` [CCK-8, Asp--Tyr(SO3 H)--Met--Gly--Trp--Met--Asp--Phe--NH2, reference compound], the “Number of yawns (average)” value in series [1] (1 mg/kg s.c., 30 min before apomorphine 0.03 mg/kg s.c., counted 30 min, control 4.5) came to 4.9. Besides, in series [1] (rats, s.c.), the “Effect on yawning behavior induced by apomorphine (in words)” value is reported as “not inhibited”. In addition, the “Average: Mean ± S.E. (total of 7 scores), climbing behavior” value in series [2] (0.01 mg/kg s.c.) came to 10.2 ± 0.7; in series [2] (0.1 mg/kg s.c.), 11.4 ± 0.6; in series [2] (1 mg/kg s.c.), 9.5 ± 1.0; in series [5] (0.01 mg/kg s.c.), 10.2 ± 0.7; in series [5] (0.1 mg/kg s.c.), 11.4 ± 0.6; in series [5] (1.0 mg/kg s.c.) it was 9.5 ± 1.0. The “Effect on apomorphine-induced climbing behavior (in words)” value in series [2] (mice, s.c.) is reported as “little or no influence on the climbing behavior; also recorded: does not inhibit this behavior”. Besides, the “ED50, inhibition of FR20 responding” value in series [3] amounted to 0.0221 mg/kg. In addition, the “Acceleration of the metabolism of dopamine in the brain of rats (in words)” value in series [4] was “does not accelerate the metabolism of dopamine”. Also, the “ED50, inhibition of methylphenidate-induced hyperlocomotion” value in series [6] came to 0.5125 mg/kg. The “Induction of yawning behavior (thought to be induced by a reduction in the amount of dopamine)” value in series [7] is recorded as “induces no yawning behavior whatsoever”. The “Induction of catalepsy (side effect)” value in series [8] is “induces catalepsy”.

For `CSCC[C@H](NC(=O)[C@H](Cc1ccc(OS(=O)(=O)O)cc1)NC(=O)CCC(=O)O)C(=O)NCC(=O)N[C@@H](Cc1c[nH]c2ccccc12)C(=O)N[C@@H](CCSC)C(=O)N[C@@H](CC(=O)O)C(=O)N[C@@H](Cc1ccccc1)C(N)=O` [Peptide D, Suc--Tyr(SO3 H)--Met--Gly--Trp--Met--Asp--Phe--NH2] (HELM PEPTIDE1{[O=C(O)CCC(=O)[*:2]].[O=C([C@H](Cc1ccc(OS(=O)(=O)O)cc1)N[*:1])[*:2]].M.G.W.M.D.F.[am]}$$$$V2.0), the “ED50, inhibition of FR20 responding” value in series [3] was 0.0102 mg/kg. In addition, the “Average: Mean ± S.E. (total of 7 scores), climbing behavior” value in series [5] (0.1 mg/kg s.c.) came to 7.0 ± 0.3; in series [5] (0.3 mg/kg s.c.), 5.9 ± 0.9; in series [5] (1.0 mg/kg s.c.) it was 4.5 ± 1.0. In addition, in series [6] (s.c.), the “Inhibitory effect on methylphenidate-induced hyperlocomotion (in words)” value was “especially high inhibitory effect”. Further, the “ED50, inhibition of methylphenidate-induced hyperlocomotion” value in series [6] was 0.0345 mg/kg.
